Source: PubChem BioAssay AID320 (DTP/NCI, 2004)
Several values for one entry are separate records, joined by “and”; a condition that tells them apart may be missing. Equal entries are not always repeated. Toxic doses and inconclusive results are not listed. *1 amine or outer side, *2 acyl side, *3 side chain or, on linkers, in order; H or OH if unused. Where a SMILES comes first, the peptide text is derived from it. Bridges are numbered along the chain shown (N, C = ends). Roman numbers before positions name the chains, in order. [ ]: non-standard residue; d: D form. Actinocin(9to1) = Cc1c2oc3c(C)ccc(C(=O)[*:1])c3nc-2c(C(=O)[*:2])c(N)c1=O; aThr = C[C@H](O)[C@H](N)C(=O)O; NMeV = CN[C@H](C(=O)O)C(C)C; Sar = CNCC(=O)O

Test system: BDF1 mice, P329 reticulum cell sarcoma ip, survival T/C
Experiment: NCI In Vivo Anticancer Drug Screen. Data for tumor model P329 Reticulum Cell Sarcoma (intraperitoneal) in B6D2F1 (BDF1) mice
Settings: endpoint: median survival time, higher = longer survival
Method: The antitumor activity of compounds was measured in mice bearing transplantable tumors. Survival or tumor size were measured and the results are expressed as the measurement made in the treated group (T) divided by the measurement made in the vehicle treated control group (C). The tumor model used in this assay is P329 Reticulum Cell Sarcoma (intraperitoneal) in B6D2F1 (BDF1) mice

[1] = dose: 12.5 mg/kg/injection, schedule: Q01DX010 (sc), vehicle: steriod suspending solution
[2] = dose: 25.0 mg/kg/injection, schedule: Q01DX010 (sc), vehicle: steriod suspending solution
[3] = dose: 50.0 mg/kg/injection, schedule: Q01DX010 (sc), vehicle: steriod suspending solution
[4] = dose: 8.0 mg/kg/injection, schedule: Q01DX010 (ip), vehicle: saline
[5] = dose: 16.0 mg/kg/injection, schedule: Q01DX010 (ip), vehicle: saline
[6] = dose: 25.0 mg/kg/injection, schedule: Q01DX010 (ip), vehicle: saline
[7] = dose: 100.0 mg/kg/injection, schedule: Q01DX010 (ip), vehicle: saline
[8] = dose: 5.0 mg/kg/injection, schedule: Q01DX010 (ip), vehicle: saline
[9] = dose: 10.0 mg/kg/injection, schedule: Q01DX010 (ip), vehicle: saline
[10] = dose: 20.0 mg/kg/injection, schedule: Q01DX010 (ip), vehicle: saline
[11] = dose: 40.0 mg/kg/injection, schedule: Q01DX010 (ip), vehicle: saline
[12] = dose: 6.25 mg/kg/injection, schedule: Q01DX010 (ip), vehicle: saline
[13] = dose: 12.5 mg/kg/injection, schedule: Q01DX010 (ip), vehicle: saline
[14] = dose: 2.5 mg/kg/injection, schedule: Q01DX010 (ip), vehicle: saline
[15] = dose: 120.0 mg/kg/injection, schedule: Q01DX010 (ip), vehicle: saline
[16] = dose: 1.5 mg/kg/injection, schedule: Q01DX010 (ip), vehicle: saline
[17] = dose: 6.0 mg/kg/injection, schedule: Q01DX010 (ip), vehicle: saline
[18] = dose: 80.0 mg/kg/injection, schedule: Q01DX010 (ip), vehicle: saline

In the case of `CN(Cc1cnc2nc(N)nc(N)c2n1)c1ccc(C(=O)N[C@@H](CCC(=O)O)C(=O)O)cc1`, the T/C (dose: 0.19 mg/kg/injection, schedule: Q01DX010 (ip), vehicle: other) is reported as 101 % of control and 106 % of control, the T/C (dose: 0.38 mg/kg/injection, schedule: Q01DX010 (ip), vehicle: other) is reported as 100 % of control and 110 % of control and 116 % of control and the T/C (dose: 0.75 mg/kg/injection, schedule: Q01DX010 (ip), vehicle: other) is reported as 114 % of control.
For `CN(C)c1nc(N(C)C)nc(N(C)C)n1`, the T/C (dose: 18.8 mg/kg/injection, schedule: Q01DX010 (ip), vehicle: saline) was 96 % of control and 103 % of control, the T/C (dose: 37.5 mg/kg/injection, schedule: Q01DX010 (ip), vehicle: saline) was 92 % of control and 100 % of control and the T/C (dose: 75.0 mg/kg/injection, schedule: Q01DX010 (ip), vehicle: saline) was 92 % of control and 107 % of control. The T/C (dose: 150.0 mg/kg/injection, schedule: Q01DX010 (ip), vehicle: saline) was 107 % of control and 114 % of control.
In the case of `C[C@]12C=CC(=O)C=C1CC[C@@H]1[C@@H]2[C@@H](O)C[C@@]2(C)[C@H]1CC[C@]2(O)C(=O)CO`, the T/C [1] is reported as 100 % of control and 103 % of control, the T/C [2] is reported as 100 % of control and the T/C [3] is reported as 100 % of control. The T/C (dose: 100.0 mg/kg/injection, schedule: Q01DX010 (sc), vehicle: steriod suspending solution) was 100 % of control.
With `CC(=O)O[C@]1(C(C)=O)CC[C@H]2[C@@H]3C[C@H](C)C4=CC(=O)C=C[C@]4(C)[C@@]3(F)[C@@H](O)C[C@@]21C` the T/C [1] was 93 % of control, the T/C [2] was 93 % of control and the T/C [3] was 93 % of control.
In the case of `c1ccc(CNc2ncnc3[nH]ncc23)cc1`, the T/C [4] is reported as 103 % of control and 115 % of control and the T/C [5] is reported as 107 % of control.
`S=c1nc[nH]c2nc[nH]c12` was tested, and the T/C (dose: 20.0 mg/kg/injection, schedule: Q01DX010 (ip), vehicle: alkali diluted with saline) was 150 % of control and the T/C (dose: 80.0 mg/kg/injection, schedule: Q01DX010 (ip), vehicle: alkali diluted with saline) was 158 % of control.
With `CCN(CC)CCNc1ccc(C)c2sc3ccccc3c(=O)c12` the T/C [6] was 111 % of control and 114 % of control and the T/C [7] was 115 % of control.
`CN(C)c1ccc(/C=C/c2ccnc3ccccc23)cc1` was tested, and the T/C [8] was 100 % of control and 103 % of control, the T/C [9] was 92 % of control and 107 % of control and the T/C [10] was 96 % of control and 103 % of control. The T/C [11] was 92 % of control and 100 % of control.
In the case of `C[C@H]1C(=O)O[C@@H]2CCN3CC=C(COC(=O)[C@](C)(O)[C@@]1(C)O)[C@H]23`, the T/C (dose: 3.13 mg/kg/injection, schedule: Q01DX010 (ip), vehicle: saline) is reported as 106 % of control and 107 % of control, the T/C [12] is reported as 103 % of control and 107 % of control and the T/C [13] is reported as 103 % of control. For the same compound, the T/C [6] was 100 % of control and 103 % of control.
`C1CN1c1nc(N2CC2)nc(N2CC2)n1` was tested, and the T/C (dose: 0.13 mg/kg/injection, schedule: Q01DX010 (ip), vehicle: saline) was 96 % of control and 108 % of control, the T/C (dose: 0.25 mg/kg/injection, schedule: Q01DX010 (ip), vehicle: saline) was 115 % of control and the T/C (dose: 0.5 mg/kg/injection, schedule: Q01DX010 (ip), vehicle: saline) was 170 % of control. The T/C (dose: 1.0 mg/kg/injection, schedule: Q01DX010 (ip), vehicle: saline) was 150 % of control.
With `O=P1(N(CCCl)CCCl)NCCCO1` (stereo unspecified) the T/C (dose: 11.3 mg/kg/injection, schedule: Q01DX010 (ip), vehicle: saline) was 106 % of control and 121 % of control and the T/C (dose: 22.5 mg/kg/injection, schedule: Q01DX010 (ip), vehicle: saline) was 86 % of control.
`S=P(N1CCOCC1)(N1CC1)N1CC1` was tested, and the T/C [14] was 100 % of control, the T/C [8] was 100 % of control and 107 % of control and the T/C [9] was 100 % of control and 119 % of control. For the same compound, the T/C [10] was 107 % of control and 115 % of control.
With `N#CCSc1ncnc2nc[nH]c12` the T/C (dose: 15.0 mg/kg/injection, schedule: Q01DX010 (ip), vehicle: saline) was 150 % of control, the T/C (dose: 30.0 mg/kg/injection, schedule: Q01DX010 (ip), vehicle: saline) was 115 % of control and the T/C [15] was 173 % of control.
With `Nc1nc(SCc2ccccc2)c2[nH]cnc2n1` the T/C [4] was 100 % of control and 121 % of control, the T/C [5] was 114 % of control and 121 % of control and the T/C (dose: 32.0 mg/kg/injection, schedule: Q01DX010 (ip), vehicle: saline) was 117 % of control. For the same compound, the T/C (dose: 64.0 mg/kg/injection, schedule: Q01DX010 (ip), vehicle: saline) was 89 % of control.
`N=C(N)SCc1c2ccccc2c(CSC(=N)N)c2ccccc12` was tested, and the T/C [14] was 112 % of control, the T/C [8] was 118 % of control and the T/C [9] was 106 % of control. For the same compound, the T/C [10] was 118 % of control.
`Nc1ncnc2[nH]ncc12` was tested, and the T/C [16] was 107 % of control, the T/C (dose: 3.0 mg/kg/injection, schedule: Q01DX010 (ip), vehicle: saline) was 111 % of control and the T/C [17] was 123 % of control. The T/C (dose: 12.0 mg/kg/injection, schedule: Q01DX010 (ip), vehicle: saline) was 88 % of control and 103 % of control.
With `S=P(N1CC1)(N1CC1)N1CC1` the T/C (dose: 0.75 mg/kg/injection, schedule: Q01DX010 (ip), vehicle: saline) was 103 % of control and 107 % of control, the T/C [16] was 111 % of control and the T/C [17] was 115 % of control and 123 % of control.
`CC/C(=C(/CC)c1ccc(O)cc1)c1ccc(O)cc1` was tested, and the T/C [13] was 107 % of control, the T/C [6] was 96 % of control and 107 % of control and the T/C (dose: 50.0 mg/kg/injection, schedule: Q01DX010 (ip), vehicle: saline) was 100 % of control and 103 % of control. For the same compound, the T/C [7] was 88 % of control.
For `NC(Cc1ccc(N(CCCl)CCCl)cc1)C(=O)O` (stereo unspecified), the T/C [8] was 153 % of control and the T/C [9] was 175 % of control.
For `N=[N+]=CC(=O)OCC(N)C(=O)O` (stereo unspecified), the T/C [12] was 153 % of control and 162 % of control, the T/C [13] was 175 % of control and 176 % of control and the T/C [6] was 87 % of control and 92 % of control.
With `CC[n+]1c(-c2ccccc2)c2cc(N)ccc2c2ccc(N)cc21` the T/C [14] was 114 % of control and the T/C [10] was 107 % of control.
With `Cc1c2oc3c(C)ccc(C(=O)N[C@@H]4C(=O)N[C@H](C(C)C)C(=O)N5CCC[C@H]5C(=O)N(C)CC(=O)N(C)[C@@H](C(C)C)C(=O)O[C@H]4C)c3nc-2c(C(=O)N[C@@H]2C(=O)N[C@H](C(C)C)C(=O)N3CCC[C@H]3C(=O)N(C)CC(=O)N(C)[C@@H](C(C)C)C(=O)O[C@H]2C)c(N)c1=O` (I: [aThr][dV]P[Sar][NMeV] / II: [aThr][dV]P[Sar][NMeV]; ester I:1-I:C, II:1-II:C; linker I:N-II:N via Actinocin(9to1)) the T/C (dose: 12.5 micrograms/kg/injection, schedule: Q01DX010 (ip), vehicle: other) was 115 % of control and 120 % of control and the T/C (dose: 50.0 micrograms/kg/injection, schedule: Q01DX010 (ip), vehicle: other) was 166 % of control.
`Cn1c(N)nc2nc[nH]c2c1=S` was tested, and the T/C [9] was 100 % of control, the T/C [10] was 106 % of control and the T/C [11] was 100 % of control. For the same compound, the T/C [18] was 106 % of control.
For `Clc1ccc(C(c2ccccc2Cl)C(Cl)Cl)cc1` (stereo unspecified), the T/C (dose: 62.5 mg/kg/injection, schedule: Q01DX010 (sc), vehicle: steriod suspending solution) was 100 % of control, the T/C (dose: 125.0 mg/kg/injection, schedule: Q01DX010 (sc), vehicle: steriod suspending solution) was 100 % of control and the T/C (dose: 250.0 mg/kg/injection, schedule: Q01DX010 (sc), vehicle: steriod suspending solution) was 107 % of control. The T/C (dose: 500.0 mg/kg/injection, schedule: Q01DX010 (sc), vehicle: steriod suspending solution) was 103 % of control.
For `O=C(Nc1ccc(NC2=NCCN2)cc1)c1ccc(C(=O)Nc2ccc(NC3=NCCN3)cc2)cc1`, the T/C (dose: 2.0 mg/kg/injection, schedule: Q01DX010 (ip), vehicle: saline) was 153 % of control and 157 % of control, the T/C (dose: 4.0 mg/kg/injection, schedule: Q01DX010 (ip), vehicle: saline) was 173 % of control and 176 % of control and the T/C [4] was 184 % of control and 203 % of control. For the same compound, the T/C [5] was 88 % of control and 92 % of control.
For `CN(C)c1ccc(Nc2c3ccccc3nc3ccccc23)cc1`, the T/C (dose: 36.0 mg/kg/injection, schedule: Q01DX010 (ip), vehicle: saline) was 121 % of control, the T/C [18] was 157 % of control and the T/C [15] was 153 % of control.
For `CCN(CCNc1ccc(C)c2sc3cc(Cl)ccc3c(=O)c12)CC(C)O` (stereo unspecified), the T/C (dose: 31.3 mg/kg/injection, schedule: Q01DX010 (ip), vehicle: saline) was 100 % of control and the T/C (dose: 250.0 mg/kg/injection, schedule: Q01DX010 (ip), vehicle: saline) was 92 % of control.
